Measurements: PubChem BioAssay (NCI)
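GI50 is the concentration that inhibits growth by half. TGI denotes the concentration required for complete inhibition of growth.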

How the values were obtained:
Assay in all cases: growth of human tumour cells (NCI), 384-well format
786-0 renal = tested on: 786-0 renal
A498 renal = tested on: A498 renal
A549 NSCLC = tested on: A549 NSCLC
ACHN renal = tested on: ACHN renal
BT-549 breast = tested on: BT-549 breast
CAKI-1 renal = tested on: CAKI-1 renal
CCRF-CEM leukemia = tested on: CCRF-CEM leukemia
COLO 205 colon = tested on: COLO 205 colon
DU-145 prostate = tested on: DU-145 prostate
EKVX NSCLC = tested on: EKVX NSCLC
HCC-2998 colon = tested on: HCC-2998 colon
HCT-15 colon = tested on: HCT-15 colon
HL-60(TB) leukemia = tested on: HL-60(TB) leukemia
HOP-62 NSCLC = tested on: HOP-62 NSCLC
HOP-92 NSCLC = tested on: HOP-92 NSCLC
HS 578T breast = tested on: HS 578T breast
HT29 colon = tested on: HT29 colon
IGROV1 ovarian = tested on: IGROV1 ovarian
K-562 leukemia = tested on: K-562 leukemia
KM12 colon = tested on: KM12 colon
LOX IMVI melanoma = tested on: LOX IMVI melanoma
M14 melanoma = tested on: M14 melanoma
MALME-3M melanoma = tested on: MALME-3M melanoma
MCF7 breast = tested on: MCF7 breast
MDA-MB-231 breast = tested on: MDA-MB-231 breast
MDA-MB-435 melanoma = tested on: MDA-MB-435 melanoma
MDA-MB-468 breast = tested on: MDA-MB-468 breast
MOLT-4 leukemia = tested on: MOLT-4 leukemia
NCI-H226 lung = tested on: NCI-H226 lung
NCI-H23 lung = tested on: NCI-H23 lung
NCI-H322M lung = tested on: NCI-H322M lung
NCI-H460 NSCLC = tested on: NCI-H460 NSCLC
NCI-H522 lung = tested on: NCI-H522 lung
NCI/ADR-RES ovarian = tested on: NCI/ADR-RES ovarian
OVCAR-3 ovarian = tested on: OVCAR-3 ovarian
OVCAR-4 ovarian = tested on: OVCAR-4 ovarian
OVCAR-5 ovarian = tested on: OVCAR-5 ovarian
OVCAR-8 ovarian = tested on: OVCAR-8 ovarian
PC-3 prostate = tested on: PC-3 prostate
RPMI-8226 leukemia = tested on: RPMI-8226 leukemia
RXF 393 renal = tested on: RXF 393 renal
SF-268 CNS = tested on: SF-268 CNS
SF-295 CNS = tested on: SF-295 CNS
SF-539 CNS = tested on: SF-539 CNS
SK-MEL-28 melanoma = tested on: SK-MEL-28 melanoma
SK-MEL-5 melanoma = tested on: SK-MEL-5 melanoma
SK-OV-3 ovarian = tested on: SK-OV-3 ovarian
SN12C renal = tested on: SN12C renal
SNB-19 CNS = tested on: SNB-19 CNS
SNB-75 CNS = tested on: SNB-75 CNS
SR leukemia = tested on: SR leukemia
SW-620 colon = tested on: SW-620 colon
T-47D breast = tested on: T-47D breast
TK-10 renal = tested on: TK-10 renal
U251 glioblastoma = tested on: U251 glioblastoma
UACC-257 melanoma = tested on: UACC-257 melanoma
UACC-62 melanoma = tested on: UACC-62 melanoma
UO-31 renal = tested on: UO-31 renal

CCN1C(=O)CCCc2c1ccc(Nc1ncc(Cl)c(NC3[C@@H](C(N)=O)[C@@H]4C=C[C@H]3C4)n1)c2OC (stereo partly specified)
GI50 ([…]-0 renal): 0.624 µM
TGI (786-0 renal): 2.33 µM
GI50 (A498 renal): 1.77 µM
TGI (A498 renal): 11.5 µM
GI50 (A549 NSCLC): 0.366 µM
TGI (A549 NSCLC): 2.55 µM
GI50 (ACHN renal): 1.2 µM
TGI (ACHN renal): 7.31 µM
GI50 (BT-549 breast): 0.509 µM
TGI (BT-549 breast): 1.88 µM
GI50 (CAKI-1 renal): 1.23 µM
TGI (CAKI-1 renal): 4.5 µM
GI50 (CCRF-CEM leukemia): 0.22 µM
TGI (CCRF-CEM leukemia): 0.402 µM
GI50 (COLO 205 colon): 0.318 µM
TGI (COLO 205 colon): 1.19 µM
GI50 (DU-145 prostate): 0.577 µM
TGI (DU-145 prostate): 2.8 µM
GI50 (EKVX NSCLC): 0.927 µM
TGI (EKVX NSCLC): 3.26 µM
GI50 (HCC-2998 colon): 1.68 µM
TGI (HCC-2998 colon): 3.07 µM
GI50 (HCT-15 colon): 0.288 µM
TGI (HCT-15 colon): 1.21 µM
GI50 (HL-60(TB) leukemia): 0.254 µM
TGI (HL-60(TB) leukemia): 0.532 µM
GI50 (HOP-62 NSCLC): 0.644 µM
TGI (HOP-62 NSCLC): 2.99 µM
GI50 (HOP-92 NSCLC): 0.665 µM
TGI (HOP-92 NSCLC): 3.99 µM
GI50 (HS 578T breast): 0.437 µM
TGI (HS 578T breast): 1.67 µM
GI50 (HT29 colon): 0.45 µM
TGI (HT29 colon): 2 µM
GI50 (IGROV1 ovarian): 1.32 µM
TGI (IGROV1 ovarian): 2.77 µM
GI50 (K-562 leukemia): 0.722 µM
TGI (K-562 leukemia): 11.6 µM
GI50 (KM12 colon): 1.1 µM
TGI (KM12 colon): 8.56 µM
GI50 (LOX IMVI melanoma): 0.334 µM
TGI (LOX IMVI melanoma): 1.2 µM
GI50 (M14 melanoma): 0.499 µM
TGI (M14 melanoma): 1.7 µM
GI50 (MALME-3M melanoma): 0.517 µM
TGI (MALME-3M melanoma): 1.92 µM
GI50 (MCF7 breast): 0.562 µM
TGI (MCF7 breast): 2.34 µM
GI50 (MDA-MB-231 breast): 0.726 µM
TGI (MDA-MB-231 breast): 4.4 µM
GI50 (MDA-MB-435 melanoma): 0.728 µM
TGI (MDA-MB-435 melanoma): 3.49 µM
GI50 (MDA-MB-468 breast): 0.365 µM
TGI (MDA-MB-468 breast): 0.912 µM
GI50 (MOLT-4 leukemia): 0.137 µM
TGI (MOLT-4 leukemia): 0.287 µM
GI50 (NCI-H226 lung): 1.13 µM
TGI (NCI-H226 lung): 4.42 µM
GI50 (NCI-H23 lung): 0.43 µM
TGI (NCI-H23 lung): 1.62 µM
GI50 (NCI-H322M lung): 1.9 µM
TGI (NCI-H322M lung): 5.61 µM
GI50 (NCI-H460 NSCLC): 0.355 µM
TGI (NCI-H460 NSCLC): 9.12 µM
GI50 (NCI-H522 lung): 0.385 µM
TGI (NCI-H522 lung): 1.31 µM
GI50 (NCI/ADR-RES ovarian): 1.07 µM
TGI (NCI/ADR-RES ovarian): 2.4 µM
GI50 (OVCAR-3 ovarian): 1.02 µM
TGI (OVCAR-3 ovarian): 2.77 µM
GI50 (OVCAR-4 ovarian): 1.1 µM
TGI (OVCAR-4 ovarian): 2.7 µM
GI50 (OVCAR-5 ovarian): 0.559 µM
TGI (OVCAR-5 ovarian): 2.31 µM
GI50 (OVCAR-8 ovarian): 0.349 µM
TGI (OVCAR-8 ovarian): 1.22 µM
GI50 (PC-3 prostate): 1.24 µM
TGI (PC-3 prostate): 3.81 µM
GI50 (RPMI-8226 leukemia): 0.226 µM
TGI (RPMI-8226 leukemia): 0.501 µM
GI50 (RXF 393 renal): 1.62 µM
TGI (RXF 393 renal): 3.95 µM
GI50 (SF-268 CNS): 1.22 µM
TGI (SF-268 CNS): 4.35 µM
GI50 (SF-295 CNS): 0.812 µM
TGI (SF-295 CNS): 8.31 µM
GI50 (SF-539 CNS): 0.475 µM
TGI (SF-539 CNS): 1.78 µM
GI50 (SK-MEL-28 melanoma): 1.08 µM
TGI (SK-MEL-28 melanoma): 2.57 µM
GI50 (SK-MEL-5 melanoma): 0.578 µM
TGI (SK-MEL-5 melanoma): 1.95 µM
GI50 (SK-OV-3 ovarian): 1.4 µM
TGI (SK-OV-3 ovarian): 3.25 µM
GI50 (SN12C renal): 1.21 µM
TGI (SN12C renal): 11.1 µM
GI50 (SNB-19 CNS): 1.38 µM
TGI (SNB-19 CNS): 7.13 µM
GI50 (SNB-75 CNS): 1.1 µM
TGI (SNB-75 CNS): 9.58 µM
GI50 (SR leukemia): 0.038 µM
TGI (SR leukemia): 0.126 µM
GI50 (SW-620 colon): 0.434 µM
TGI (SW-620 colon): 1.72 µM
GI50 (T-47D breast): 1.07 µM
TGI (T-47D breast): 4.24 µM
GI50 (TK-10 renal): 1.3 µM
TGI (TK-10 renal): 3.75 µM
GI50 (U251 glioblastoma): 0.632 µM
TGI (U251 glioblastoma): 10.9 µM
GI50 (UACC-257 melanoma): 0.677 µM
TGI (UACC-257 melanoma): 2.15 µM
GI50 (UACC-62 melanoma): 0.536 µM
TGI (UACC-62 melanoma): 1.8 µM
GI50 (UO-31 renal): 1.63 µM
TGI (UO-31 renal): 14.3 µM
